These results are taken from patent publication US20240041769A1, “COMPOSITIONS AND METHODS FOR DELIVERY OF ANTICANCER AGENTS WITH IMPROVED THERAPEUTIC INDEX” (NanoTech Pharma Inc., priority 2020, published 2024).

Molecules are shown by their SMILES.

For data set [1] the following is noted: clinical studies, oral afatinib; cited from earlier work.
The nature of data set [2]: In-vivo pharmacokinetic study, intravenous. On the set-up: species or system BALB/c nude mice. As to conditions: mice, free drug solutions. The method, then: In-vivo pharmacokinetic study of free afatinib and nintedanib combination (data not shown), and AFA/NIN-L (1:5 AFA:NIN molar ratio) were carried out in BALB/c nude mice. The preparation of the PEGylated AFA/NIN-L with TEA-SOS used as the trapping agent was described in the Experimental Method section. The mixture of afatinib and nintedanib free drug cocktail and PEGylated AFA/NIN-L with a molar ratio of 1:5 were administered intravenously via the tail vein into the mice and the plasma concentration of both AFA and NIN was monitored over time. Doses of the all drug formulations were 7.0 mg/kg of afatinib free base (10.3 mg/kg afatinib dimaleate) and 38.9 mg/kg of nintedanib free base (46.8 mg/kg nintedanib […]). After intravenous administration, blood was collected at multiple time points by cardiac puncture (3 mice per time point) and placed into EDTA coated micro containers. The samples were centrifuged to separate plasma, and plasma was transferred to another tube. Then, AFA and NIN plasma levels were quantified with LC-MS. PK parameters were then calculated from measured AFA and NIN plasma levels.

With `CN(C)C/C=C/C(=O)Nc1cc2c(Nc3ccc(F)c(Cl)c3)ncnc2cc1O[C@H]1CCOC1` [AFA, Afatinib], in data set [1], the “treatment-related grade ≥3 AE: diarrhea” value was 5.4-14.4%, the “treatment-related grade ≥3 AE: rash/acne” value is reported as 9.7-16.2% and the “treatment-related grade ≥3 AE: stomatitis/mucositis” value was 5.4-8.7%. Further, the “elimination after IV administration” value in data set [2] is recorded as “rapidly eliminated”.
With `COC(=O)c1ccc2c(c1)NC(=O)/C2=C(\Nc1ccc(N(C)C(=O)CN2CCN(C)CC2)cc1)c1ccccc1` [NIN, Nintedanib], the “elimination after IV administration” value in data set [2] is on record as “rapidly eliminated”.
